Values quoted from earlier work, collected in publication PMC7523345 (Investigational new drugs, 2018).

Columns and labels:
[1] = system: TNBC cells with NOTCH2 rearrangement; details: cited from earlier work
[2] = system: TNBC cells with NOTCH1 re-arrangements; details: in vitro and in vivo; cited from earlier work

O=S1(=O)N[C@@]2(CN1CC(F)(F)F)[C@@H]1CC[C@H]2Cc2ccc(/C=C/CN3CCC(C(F)(F)F)CC3)cc2C1 [MRK-003]
Sensitivity of TNBC cells with NOTCH2 rearrangement [1]: resistant
Sensitivity of TNBC cells with NOTCH1 re-arrangements [2]: sensitive
